Test results reported in ChEMBL document CHEMBL3792348, “Design, synthesis and structure activity relationship of potent pan-PIM kinase inhibitors derived from the pyridyl carboxamide scaffold” (Bioorg Med Chem Lett, 2016).

Columns and labels:
[1] = target: Serine/threonine-protein kinase pim-1 (Homo sapiens, UniProt P11309); assay: Inhibition of Pim1 (unknown origin) using BAD peptide preincubated for 15 mins followed by ATP addition measured after 60 to 100 mins by Kinase-Glo reagent based luminescence assay
[2] = target: Serine/threonine-protein kinase pim-2 (Homo sapiens, UniProt Q9P1W9)
Description: Inhibition of Pim2 (unknown origin) using BAD peptide preincubated for 15 mins followed by ATP addition measured after 60 to 100 mins by Kinase-Glo reagent based luminescence assay

[3] = target: Serine/threonine-protein kinase pim-3 (Homo sapiens, UniProt Q86V86); assay: Inhibition of Pim3 (unknown origin) using BAD peptide preincubated for 15 mins followed by ATP addition measured after 60 to 100 mins by Kinase-Glo reagent based luminescence assay
[4] = Hepatic extraction ratio in rat liver microsomes at 1 uM incubated for 30 mins by semi-quantitative LC-MS/MS analysis; assay type: ADME; conditions: read-out: ERH
[5] = Hepatic extraction ratio in human liver microsomes at 1 uM incubated for 30 mins by semi-quantitative LC-MS/MS analysis; assay type: ADME; conditions: read-out: ERH
[6] = Lipophilicity, logD of the compound; assay type: physicochemical; conditions: octanol/water

Sequence of Serine/threonine-protein kinase pim-1 (P11309 whole entry): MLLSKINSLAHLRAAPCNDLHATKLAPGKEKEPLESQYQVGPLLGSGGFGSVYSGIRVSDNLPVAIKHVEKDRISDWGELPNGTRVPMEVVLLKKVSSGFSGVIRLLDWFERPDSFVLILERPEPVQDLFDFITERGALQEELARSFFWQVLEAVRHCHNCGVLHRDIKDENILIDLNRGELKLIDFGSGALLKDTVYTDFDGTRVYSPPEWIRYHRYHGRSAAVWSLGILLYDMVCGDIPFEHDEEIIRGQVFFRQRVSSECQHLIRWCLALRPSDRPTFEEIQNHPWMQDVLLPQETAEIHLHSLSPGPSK
Sequence of Serine/threonine-protein kinase pim-2 (Q9P1W9 whole entry): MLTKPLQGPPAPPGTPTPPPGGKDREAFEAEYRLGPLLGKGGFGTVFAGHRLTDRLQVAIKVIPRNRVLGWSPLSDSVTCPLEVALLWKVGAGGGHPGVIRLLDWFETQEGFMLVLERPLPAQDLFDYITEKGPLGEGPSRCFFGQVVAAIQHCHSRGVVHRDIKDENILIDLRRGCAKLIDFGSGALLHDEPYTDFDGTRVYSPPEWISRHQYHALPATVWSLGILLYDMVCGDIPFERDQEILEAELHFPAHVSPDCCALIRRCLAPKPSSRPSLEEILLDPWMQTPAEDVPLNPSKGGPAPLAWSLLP

Structure (SMILES) | Ki [1] | Ki [2] | Ki [3] | hepatic extraction ratio at 0.5 h, 1 µM [4] | hepatic extraction ratio at 0.5 h, 1 µM [5] | logD [6]
CC(=O)Nc1nc(C(=O)Nc2ccccc2N2CCCCC2)cs1 | 90 nM | > 12500 nM | – | – | – | –
Nc1cc(-c2ccncc2NC(=O)c2nc(-c3c(F)cccc3F)ccc2N)nc(C(F)(F)F)n1 | < 1 nM | < 3 nM | < 3 nM | 0.91 | 0.77 | 4.3
Nc1cc(-c2ccncc2NC(=O)c2nc(-c3nccs3)ccc2N)nc(C(F)(F)F)n1 | < 1 nM | < 3 nM | < 3 nM | 0.89 | 0.87 | –
Nc1cc(-c2ccncc2NC(=O)c2nc(-c3ccccc3F)ccc2N)nc(N)n1 | 17 nM | 120 nM | 15 nM | – | – | –
Cc1cc(-c2ccncc2NC(=O)c2nc(-c3nccs3)ccc2N)nc(N)n1 | < 1 nM | 9 nM | < 3 nM | 0.81 | 0.64 | –
Cc1cc(-c2ccncc2NC(=O)c2nc(-c3c(F)cccc3F)ccc2N)cc(N)n1 | < 1 nM | < 3 nM | < 3 nM | 0.94 | 0.96 | –
Nc1ccc(-c2ccncc2NC(=O)c2nc(-c3ccccc3F)ccc2N)cn1 | 4 nM | 158 nM | 12 nM | – | – | –
Cc1nc(N)cc(-c2ccncc2NC(=O)c2nc(-c3c(F)cccc3F)ccc2N)n1 | < 1 nM | < 3 nM | < 3 nM | 0.82 | 0.82 | –
COc1cc(-c2ccncc2NC(=O)c2nc(-c3c(F)cccc3F)ccc2N)cc(N)n1 | < 1 nM | 4 nM | < 3 nM | – | – | –

Next, values leading:

Ki [1] | Ki [2] | Ki [3] | hepatic extraction ratio at 0.5 h, 1 µM [4] | hepatic extraction ratio at 0.5 h, 1 µM [5] | logD [6] | Structure (SMILES)
< 1 nM | 35 nM | 3 nM | – | – | – | Nc1cc(-c2ccncc2NC(=O)c2nc(-c3ccccc3F)ccc2N)ccn1
3 nM | 94 nM | 6 nM | – | – | – | Nc1cncc(-c2ccncc2NC(=O)c2nc(-c3ccccc3F)ccc2N)n1
28 nM | 187 nM | 36 nM | – | – | – | Nc1ccc(-c2c(F)cccc2F)nc1C(=O)Nc1cnccc1-c1cccnc1N
< 1 nM | 4 nM | < 3 nM | 0.95 | 0.95 | – | Cc1cc(-c2ccncc2NC(=O)c2nc(-c3ccccc3F)ccc2N)cc(N)n1
< 1 nM | < 3 nM | < 3 nM | 0.8 | 0.58 | – | Cc1cc(-c2ccncc2NC(=O)c2nc(-c3ccccc3F)ccc2N)nc(N)n1
4 nM | 27 nM | 5 nM | – | – | – | Nc1cc(-c2ccncc2NC(=O)c2nc(-c3c(F)cccc3F)ccc2N)ncn1
6 nM | 50 nM | 5 nM | – | – | – | Nc1nccc(-c2ccncc2NC(=O)c2nc(-c3c(F)cccc3F)ccc2N)n1
8 nM | 317 nM | 21 nM | – | – | – | Nc1ccc(-c2ccccc2F)nc1C(=O)Nc1cnccc1-c1ccncc1
2 nM | 8 nM | < 3 nM | – | – | – | Nc1cc(-c2ccncc2NC(=O)c2nc(-c3c(F)cccc3F)ccc2N)ccn1
